From PubChem BioAssay (NCI)
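Cultured in 96-well plates, cells were exposed to test compound for 48 hours across five concentrations. TGI marks complete inhibition of growth.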

Key:
Experiment in all cases: NCI tumour cell line growth inhibition, 48 h
OVCAR-5 ovarian = test system: OVCAR-5 ovarian
SF-539 CNS = test system: SF-539 CNS
HOP-62 NSCLC = test system: HOP-62 NSCLC
SF-295 CNS = test system: SF-295 CNS
TK-10 renal = test system: TK-10 renal
MALME-3M melanoma = test system: MALME-3M melanoma
HT29 colon = test system: HT29 colon
MDA-MB-231 breast = test system: MDA-MB-231 breast
KM12 colon = test system: KM12 colon
M14 melanoma = test system: M14 melanoma
ACHN renal = test system: ACHN renal
SR leukemia = test system: SR leukemia
SK-OV-3 ovarian = test system: SK-OV-3 ovarian
MCF7 breast = test system: MCF7 breast
OVCAR-8 ovarian = test system: OVCAR-8 ovarian
786-0 renal = test system: 786-0 renal
U251 CNS = test system: U251 CNS
MDA-MB-435 = test system: MDA-MB-435
HL-60(TB) leukemia = test system: HL-60(TB) leukemia
LOX IMVI melanoma = test system: LOX IMVI melanoma
SF-268 CNS = test system: SF-268 CNS
NCI/ADR-RES ovarian = test system: NCI/ADR-RES ovarian
UACC-257 melanoma = test system: UACC-257 melanoma
NCI-H460 lung = test system: NCI-H460 lung
SNB-19 CNS = test system: SNB-19 CNS
CAKI-1 renal = test system: CAKI-1 renal
DU-145 prostate = test system: DU-145 prostate
CCRF-CEM leukemia = test system: CCRF-CEM leukemia
NCI-H23 lung = test system: NCI-H23 lung
K-562 leukemia = test system: K-562 leukemia
PC-3 prostate = test system: PC-3 prostate
SW-620 colon = test system: SW-620 colon
HOP-92 NSCLC = test system: HOP-92 NSCLC
T-47D breast = test system: T-47D breast
UACC-62 melanoma = test system: UACC-62 melanoma
OVCAR-3 ovarian = test system: OVCAR-3 ovarian
SN12C renal = test system: SN12C renal
NCI-H226 lung = test system: NCI-H226 lung
A549 NSCLC = test system: A549 NSCLC
HS 578T breast = test system: HS 578T breast
UO-31 renal = test system: UO-31 renal
MOLT-4 leukemia = test system: MOLT-4 leukemia
IGROV1 ovarian = test system: IGROV1 ovarian
A498 renal = test system: A498 renal
BT-549 breast = test system: BT-549 breast
OVCAR-4 ovarian = test system: OVCAR-4 ovarian
RPMI-8226 leukemia = test system: RPMI-8226 leukemia
MDA-N = test system: MDA-N
HCT-15 colon = test system: HCT-15 colon
EKVX NSCLC = test system: EKVX NSCLC
SK-MEL-5 melanoma = test system: SK-MEL-5 melanoma
SK-MEL-28 melanoma = test system: SK-MEL-28 melanoma
SNB-75 CNS = test system: SNB-75 CNS
SK-MEL-2 melanoma = test system: SK-MEL-2 melanoma
HCT-116 colon = test system: HCT-116 colon
RXF 393 renal = test system: RXF 393 renal
HCC-2998 colon = test system: HCC-2998 colon
COLO 205 colon = test system: COLO 205 colon
NCI-H522 lung = test system: NCI-H522 lung

In the case of Cc1c2c(n3c(nc4ccccc43)c1C#N)SCC2, the TGI (OVCAR-5 ovarian) is reported as > 10 µM, the TGI (SF-539 CNS) is reported as > 10 µM and the TGI (HOP-62 NSCLC) is reported as > 10 µM. The TGI (SF-295 CNS) was > 10 µM, the TGI (TK-10 renal) was > 10 µM and the TGI (MALME-3M melanoma) was > 10 µM. The TGI (HT29 colon) was > 10 µM, the TGI (MDA-MB-231 breast) was > 10 µM and the TGI (KM12 colon) was > 10 µM. The TGI (M14 melanoma) was > 10 µM, the TGI (ACHN renal) was > 10 µM and the TGI (SR leukemia) was > 10 µM. For the same compound, the TGI (SK-OV-3 ovarian) was > 10 µM, the TGI (MCF7 breast) was > 10 µM and the TGI (OVCAR-8 ovarian) was > 10 µM. The TGI (786-0 renal) was > 10 µM, the TGI (U251 CNS) was > 10 µM and the TGI (MDA-MB-435) was > 10 µM. For the same compound, the TGI (HL-60(TB) leukemia) was > 10 µM, the TGI (LOX IMVI melanoma) was > 10 µM and the TGI (SF-268 CNS) was > 10 µM. The TGI (NCI/ADR-RES ovarian) was > 10 µM, the TGI (UACC-257 melanoma) was > 10 µM and the TGI (NCI-H460 lung) was > 10 µM. The TGI (SNB-19 CNS) was > 10 µM, the TGI (CAKI-1 renal) was > 10 µM and the TGI (DU-145 prostate) was > 10 µM. The TGI (CCRF-CEM leukemia) was > 10 µM, the TGI (NCI-H23 lung) was > 10 µM and the TGI (K-562 leukemia) was > 10 µM. For the same compound, the TGI (PC-3 prostate) was > 10 µM, the TGI (SW-620 colon) was > 10 µM and the TGI (HOP-92 NSCLC) was > 10 µM. The TGI (T-47D breast) was > 10 µM, the TGI (UACC-62 melanoma) was > 10 µM and the TGI (OVCAR-3 ovarian) was > 10 µM. The TGI (SN12C renal) was > 10 µM, the TGI (NCI-H226 lung) was > 10 µM and the TGI (A549 NSCLC) was > 10 µM. The TGI (HS 578T breast) was > 10 µM, the TGI (UO-31 renal) was > 10 µM and the TGI (MOLT-4 leukemia) was > 10 µM. For the same compound, the TGI (IGROV1 ovarian) was > 10 µM, the TGI (A498 renal) was > 10 µM and the TGI (BT-549 breast) was > 10 µM. The TGI (OVCAR-4 ovarian) was > 10 µM, the TGI (RPMI-8226 leukemia) was > 10 µM and the TGI (MDA-N) was > 10 µM. For the same compound, the TGI (HCT-15 colon) was > 10 µM, the TGI (EKVX NSCLC) was > 10 µM and the TGI (SK-MEL-5 melanoma) was > 10 µM. The TGI (SK-MEL-28 melanoma) was > 10 µM, the TGI (SNB-75 CNS) was > 10 µM and the TGI (SK-MEL-2 melanoma) was > 10 µM. For the same compound, the TGI (HCT-116 colon) was > 10 µM.

For O=C1Cc2c(-c3ccc(Cl)cc3)cc(-c3ccccc3)nc2-c2ccccc2N1, the TGI (OVCAR-5 ovarian) was > 81 µM, the TGI (SF-539 CNS) was 25.4 µM and the TGI (HOP-62 NSCLC) was 53.3 µM. For the same compound, the TGI (SF-295 CNS) was 26.6 µM, the TGI (TK-10 renal) was 21.3 µM and the TGI (MALME-3M melanoma) was > 64 µM. For the same compound, the TGI (HT29 colon) was > 42.8 µM, the TGI (MDA-MB-231 breast) was 20.1 µM and the TGI (KM12 colon) was > 100 µM. For the same compound, the TGI (M14 melanoma) was > 100 µM, the TGI (ACHN renal) was 28.3 µM and the TGI (SR leukemia) was > 100 µM. For the same compound, the TGI (SK-OV-3 ovarian) was 18.8 µM, the TGI (MCF7 breast) was > 42.5 µM and the TGI (RXF 393 renal) was 20.3 µM. The TGI (OVCAR-8 ovarian) was 11.6 µM, the TGI (786-0 renal) was 4.92 µM and the TGI (U251 CNS) was 17.8 µM. The TGI (MDA-MB-435) was > 57.1 µM, the TGI (HL-60(TB) leukemia) was > 100 µM and the TGI (LOX IMVI melanoma) was 22.8 µM. For the same compound, the TGI (SF-268 CNS) was 48.9 µM, the TGI (NCI/ADR-RES ovarian) was 26.4 µM and the TGI (UACC-257 melanoma) was > 100 µM. For the same compound, the TGI (NCI-H460 lung) was 10.7 µM, the TGI (SNB-19 CNS) was 7.31 µM and the TGI (CAKI-1 renal) was 19.4 µM. The TGI (DU-145 prostate) was > 61.4 µM, the TGI (CCRF-CEM leukemia) was > 63.3 µM and the TGI (NCI-H23 lung) was 33.8 µM. The TGI (K-562 leukemia) was > 100 µM, the TGI (PC-3 prostate) was > 100 µM and the TGI (SW-620 colon) was > 46 µM. For the same compound, the TGI (HCC-2998 colon) was 24.2 µM, the TGI (HOP-92 NSCLC) was 14.6 µM and the TGI (COLO 205 colon) was 12.9 µM. The TGI (T-47D breast) was 12.9 µM, the TGI (UACC-62 melanoma) was > 58.9 µM and the TGI (OVCAR-3 ovarian) was 27.1 µM. For the same compound, the TGI (SN12C renal) was 25 µM, the TGI (NCI-H226 lung) was 44.9 µM and the TGI (A549 NSCLC) was 23.2 µM. The TGI (HS 578T breast) was 29.1 µM, the TGI (UO-31 renal) was 14.8 µM and the TGI (MOLT-4 leukemia) was > 76.5 µM. The TGI (IGROV1 ovarian) was > 50.7 µM, the TGI (A498 renal) was 6.67 µM and the TGI (BT-549 breast) was 50.7 µM. For the same compound, the TGI (OVCAR-4 ovarian) was 26.4 µM, the TGI (RPMI-8226 leukemia) was 60.8 µM and the TGI (MDA-N) was 55.8 µM. The TGI (HCT-15 colon) was > 44.8 µM, the TGI (EKVX NSCLC) was > 56.8 µM and the TGI (SK-MEL-5 melanoma) was 21 µM. The TGI (SK-MEL-28 melanoma) was 34.8 µM, the TGI (SNB-75 CNS) was 14.2 µM and the TGI (NCI-H522 lung) was 32.9 µM. The TGI (SK-MEL-2 melanoma) was 97.7 µM and the TGI (HCT-116 colon) was 15.3 µM.
